According to patent publication US11415579B2, “Assay for measuring a rate of reaction between a target and a ligand candidate” (Imperial College Innovations Ltd., priority 2016, dated 2022):

Key:
Cdk2(N272C) (C177A) = target: T1, Cdk2(N272C) (C177A) (Homo sapiens, UniProt P24941, C177A/N272C); experiment: Kinetic thiol consumption assay with Cdk2 mutant N272C; assay type: binding; parameters: key to Rate enhancement, Cdk2 N272: rate constant with Cdk2 ÷ rate constant with model thiol (fold); conditions: for Rate enhancement, Cdk2 N272: Cdk2 N272, additional mutation C177A; for Rate constant with Cdk2 N272C: Protein: Cdk2, cysteine position N272C, additional mutation C177A, in h^-1
T1 construct: poly-histidine; made in house; host or cells: E. coli
Method in brief: (§1)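 Thiol consumption was monitored kinetically using 5 μM Cdk2 (C177A plus one introduced cysteine) in degassed phosphate buffer at pH 8 with TCEP beads. Plates were kept 1 h at room temperature before fluorescence reading, and rate constants came from exponential decay fitting.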

[1] = target: T2, human cyclin-dependent kinase 2 (Cdk2) (Homo sapiens, UniProt P24941); experiment: Kinetic thiol consumption assay with wild type Cdk2 (C177); assay type: binding; parameters: key to Rate enhancement, Cdk2 WT: k(Cdk2) divided by k(model thiol); Rate constant with Cdk2 (k(Cdk2)): unit not given here; conditions: for Rate constant with Cdk2 (k(Cdk2)): 500 μM ligand, 5 μM thiol, phosphate buffer pH 8; for Rate enhancement, Cdk2 WT: no additional mutations; for Rate constant with Cdk2 WT: Protein: Cdk2, cysteine position WT, in h^-1; for k(Cdk2)/k(Cdk2_mut) rate enhancement: model thiol Cdk2[C177A, F80C, K278C]; for k(Cdk2)/k(GSH) rate enhancement: model thiol glutathione
T2 construct: poly-histidine; made in house; host or cells: E. coli
Method in brief: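 Rate enhancement: first-order decay constant with Cdk2 over that with a model thiol. Thiols (5 μM, degassed phosphate buffer pH 8, immobilized TCEP) were incubated with acrylamides at room temperature, and thiol consumption followed by fluorescence at 380/470 nm, normalized to DMSO control. Cdk2 was His-tagged, E. coli-expressed, with one surface cysteine (C177).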

Cdk2(R122C) (C177A) = target: T3, Cdk2(R122C) (C177A) (Homo sapiens, UniProt P24941, C177A/R122C); experiment: Kinetic thiol consumption assay with Cdk2 mutant R122C; assay type: binding; parameters: key to Rate enhancement, Cdk2 R122C: rate constant with Cdk2 ÷ rate constant with model thiol (fold); conditions: additional mutation C177A; for Rate constant with Cdk2 R122C: Protein: Cdk2, cysteine position R122C, in h-1
T3 construct: poly-histidine; made in house; host or cells: E. coli
Method in brief: as §1

Cdk2(H71C) (C177A) = target: T4, Cdk2(H71C) (C177A) (Homo sapiens, UniProt P24941, C177A/H71C); experiment: Kinetic thiol consumption assay with Cdk2 mutant H71C; assay type: binding; parameters: key to Rate enhancement, Cdk2 H71C: rate constant with Cdk2 ÷ rate constant with model thiol (fold); conditions: additional mutation C177A; for Rate constant with Cdk2 H71C: Protein: Cdk2, cysteine position H71C, in h^-1
T4 construct: poly-histidine; made in house; host or cells: E. coli
Method in brief: as §1

[2] = Kinetic thiol consumption assay with model thiol glutathione; assay type: physicochemical; parameters: Rate constant with glutathione (k(GSH)): unit not given here; conditions: for Rate constant with glutathione (k(GSH)): 500 μM ligand, 5 μM thiol, phosphate buffer pH 8; for Rate constant with Glutathione: Protein: Glutathione, cysteine position NA, in h-1
Method in brief: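 GSH 5 μM, degassed phosphate buffer pH 8, TCEP beads 2% v/v; acrylamide added; RT, 1 h; fluorescence ex/em 380/470 nm; normalized to DMSO/thiol control; k from first-order exponential decay fit.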

Cdk2(T182C) (C177A) = target: T5, Cdk2(T182C) (C177A) (Homo sapiens, UniProt P24941, C177A/T182C); experiment: Kinetic thiol consumption assay with Cdk2 mutant T182C; assay type: binding; parameters: key to Rate enhancement, Cdk2 T182C: rate constant with Cdk2 ÷ rate constant with model thiol (fold); conditions: additional mutation C177A; for Rate constant with Cdk2 T182C: Protein: Cdk2, cysteine position T182C, in h^-1
T5 construct: poly-histidine; made in house; host or cells: E. coli
Method in brief: as §1

Cdk2(S276C) (C177A) = target: T6, Cdk2(S276C) (C177A) (Homo sapiens, UniProt P24941, C177A/S276C); experiment: Kinetic thiol consumption assay with Cdk2 mutant S276C; assay type: binding; parameters: key to Rate enhancement, Cdk2 S276C: rate constant with Cdk2 ÷ rate constant with model thiol (fold); conditions: additional mutation C177A; for Rate constant with Cdk2 S276C: Protein: Cdk2, cysteine position S276C, in h^-1
T6 construct: poly-histidine; made in house; host or cells: E. coli
Method in brief: as §1

Cdk2(S181C) (C177A) = target: T7, Cdk2(S181C) (C177A) (Homo sapiens, UniProt P24941, C177A/S181C); experiment: Kinetic thiol consumption assay with Cdk2 mutant S181C; assay type: binding; parameters: key to Rate enhancement, Cdk2 S181C: rate constant with Cdk2 ÷ rate constant with model thiol (fold); conditions: additional mutation C177A; for Rate constant with Cdk2 S181C: Protein: Cdk2, cysteine position S181C, in h^-1
T7 construct: poly-histidine; made in house; host or cells: E. coli
Method in brief: as §1

Cdk2[C177A, F80C, K278C] = target: T8, Cdk2[C177A, F80C, K278C] (Homo sapiens, UniProt P24941, C177A/F80C/K278C); experiment: Kinetic thiol consumption assay with mutant Cdk2 as model thiol; assay type: binding; parameters: unit not given here; conditions: 500 μM ligand, 5 μM thiol, phosphate buffer pH 8
T8 construct: poly-histidine; made in house; host or cells: E. coli
Method in brief: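 First-order rate constants were derived by exponential-decay fitting of DMSO/thiol-normalized fluorescence (380/470 nm) over time at room temperature. Thiol was 5 μM E. coli-expressed His-tagged Cdk2 mutant C177A/F80C/K278C in degassed pH 8 phosphate buffer containing 2% v/v TCEP beads.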

Cdk2(C177A, F80C) = target: T9, Cdk2(C177A, F80C) (Homo sapiens, UniProt P24941, C177A/F80C); experiment: Kinetic thiol consumption assay with Cdk2 mutant F80C, incl. kobs versus concentration (Kd, k2); assay type: binding; parameters: key to Rate enhancement, Cdk2 F80C: Cdk2 rate constant divided by model-thiol rate constant; conditions: additional mutation C177A; for Rate constant with Cdk2 F80C: Protein: Cdk2, cysteine position F80C, in h^-1
T9 construct: poly-histidine; made in house; host or cells: E. coli
Method in brief: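 His-tagged Cdk2(C177A/F80C) from E. coli or model thiol, 5 μM in degassed phosphate buffer pH 8 with TCEP beads, reacted with acrylamide ligands; fluorescence (ex/em 380/470 nm) normalized to DMSO control and fitted to first-order decay for kobs. Kd and k2 obtained from hyperbolic fit of kobs versus ligand concentration.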

Structure (SMILES)	Rate enhancement, Cdk2 N272 (Cdk2(N272C) (C177A))	Rate constant with Cdk2 N272C (Cdk2(N272C) (C177A))	Rate constant with Cdk2 (k(Cdk2)) [1]	Rate enhancement, Cdk2 WT [1]	Rate constant with Cdk2 WT [1]	k(Cdk2)/k(Cdk2_mut) rate enhancement [1]	k(Cdk2)/k(GSH) rate enhancement [1]	Rate enhancement, Cdk2 R122C (Cdk2(R122C) (C177A))	Rate constant with Cdk2 R122C (Cdk2(R122C) (C177A))	Rate enhancement, Cdk2 H71C (Cdk2(H71C) (C177A))	Rate constant with Cdk2 H71C (Cdk2(H71C) (C177A))	Rate enhancement, Cdk2 T182C (Cdk2(T182C) (C177A))	Rate constant with Cdk2 T182C (Cdk2(T182C) (C177A))	Rate enhancement, Cdk2 S276C (Cdk2(S276C) (C177A))	Rate constant with Cdk2 S276C (Cdk2(S276C) (C177A))	Rate enhancement, Cdk2 S181C (Cdk2(S181C) (C177A))	Rate constant with Cdk2[C177A, F80C, K278C] (k(Cdk2_mut)) (Cdk2[C177A, F80C, K278C])	Rate enhancement, Cdk2 F80C (Cdk2(C177A, F80C))	Rate constant with glutathione (k(GSH)) [2]	Rate constant with Glutathione [2]	other results
C=CC(=O)Nc1nc2ccccc2n1CCc1ccccn1 [CA-144]	2.14	0.08909	0.04682	1.125	0.04682	3.77	1.131	0.9491	0.03951	8.256	0.3437	2.327	0.09687	1.262	0.05252	0.4516	0.01242	0.4956	0.0414	0.04163	Rate constant with Cdk2 S181C (Cdk2(S181C) (C177A)): 0.0188; Rate constant with Cdk2 F80C (Cdk2(C177A, F80C)): 0.02063
C=CC(=O)N(C(=O)C=C)c1c2ccccc2n2c(C)nc3ccccc3c12 [CA-152]	0		0.8358	0.4371	3.498	0.2732	3.342	0		0		0		0		0.9118	3.059	0.1587	0.2501	8.003	Rate constant with Cdk2 S181C (Cdk2(S181C) (C177A)): 7.297; Rate constant with Cdk2 F80C (Cdk2(C177A, F80C)): 1.27
C=CC(=O)Nc1sc2c(c1C(=O)NC1CC1)CCC2 [CA-155]	0.715	0.1899	0.743	2.797	0.743	0.5342	2.774	1.407	0.3736	1.102	0.2926	2.615	0.6945	0.6924	0.1839	0.7715	1.391	0	0.2678	0.2656	Rate constant with Cdk2 S181C (Cdk2(S181C) (C177A)): 0.2049

Continued, in another order:

Rate enhancement, Cdk2 N272 (Cdk2(N272C) (C177A))	Rate constant with Cdk2 N272C (Cdk2(N272C) (C177A))	Rate constant with Cdk2 (k(Cdk2)) [1]	Rate enhancement, Cdk2 WT [1]	Rate constant with Cdk2 WT [1]	k(Cdk2)/k(Cdk2_mut) rate enhancement [1]	k(Cdk2)/k(GSH) rate enhancement [1]	Rate enhancement, Cdk2 R122C (Cdk2(R122C) (C177A))	Rate constant with Cdk2 R122C (Cdk2(R122C) (C177A))	Rate enhancement, Cdk2 H71C (Cdk2(H71C) (C177A))	Rate constant with Cdk2 H71C (Cdk2(H71C) (C177A))	Rate enhancement, Cdk2 T182C (Cdk2(T182C) (C177A))	Rate constant with Cdk2 T182C (Cdk2(T182C) (C177A))	Rate enhancement, Cdk2 S276C (Cdk2(S276C) (C177A))	Rate constant with Cdk2 S276C (Cdk2(S276C) (C177A))	Rate enhancement, Cdk2 S181C (Cdk2(S181C) (C177A))	Rate constant with Cdk2[C177A, F80C, K278C] (k(Cdk2_mut)) (Cdk2[C177A, F80C, K278C])	Rate enhancement, Cdk2 F80C (Cdk2(C177A, F80C))	Structure (SMILES)	Rate constant with glutathione (k(GSH)) [2]	Rate constant with Glutathione [2]	other results
0.2158	0.001525	0.00232	0.5437	0.003842	1.79	0.5547	0.2488	0.001758	0.5333	0.003769	0.9382	0.00663	0.1634	0.001155	0	0.0013	0	C=CC(=O)NC1CC2CC1C1CCCC21 (centres unmarked) [CA-159]	0.00418	0.007067	
0.3725	0.02211	0.02529	0.5566	0.03304	14.75	0.9863	0.1023	0.006071	0.4092	0.02429	6.607	0.3922	1.07	0.06352	0.1273	0.00171	0.05133	C=CC(=O)NC1(c2noc(C)n2)CCCCCC1 [CA-162]	0.02564	0.05936	Rate constant with Cdk2 S181C (Cdk2(S181C) (C177A)): 0.007555; Rate constant with Cdk2 F80C (Cdk2(C177A, F80C)): 0.003047
0		0.3945	1.092	5.676	0.3473	0.8877	0		0		0		0		0	1.136	0.661	C=CC(=O)N1C(=O)CC(c2ccccc2)N(C(=O)C=C)c2ccccc21 (centres unmarked) [CA-165-1]	0.4444	5.198	Rate constant with Cdk2 F80C (Cdk2(C177A, F80C)): 3.436
0.2702	0.006256	0.01101	0.4756	0.01101	4.177	1.091	0.1363	0.003155	0.1567	0.003628	2.016	0.04668	0.3514	0.008135	0.343	0.00264	0.289	C=CC(=O)N(c1ccc2c(c1)OCCO2)C1CC1 [CA-167]	0.01009	0.02315	Rate constant with Cdk2 S181C (Cdk2(S181C) (C177A)): 0.00794; Rate constant with Cdk2 F80C (Cdk2(C177A, F80C)): 0.00669
